The source made the active and inactive calls. The calls are words filed in the database; no cut-off is given here.
Experiments:
MCF7 [1] = test: Induction of apoptosis in human MCF7 cells assessed as increase in cytochrome C protein level at 0.5 to 3 uM and measured after 24 hrs Western blot analysis relative to control; type: functional, cell-based; settings: dose 0.5-3 µM
MCF7 [2] = test: Inhibition of colony formation in human MCF7 cells at 0.5 to 2 uM measured after 9 days by crystal violet staining based assay; type: functional, cell-based; settings: dose 0.5-2 µM, time 9.0 day
MCF7 [3] = test: Effect on cell morphology in human MCF7 cells assessed as appearance of round cells at 0.5 to 2 uM measured after 24 hrs by Hoechst 33342 staining based fluorescence microscopy; type: functional; settings: dose 0.5-2 µM
MCF7 [4] = test: Induction of ROS generation in human MCF7 cells assessed as increase in intracellular ROS level at 0.5 to 2 uM and measured after 24 hrs by DCFH-DA staining based flow cytometry method; type: functional, cell-based; settings: dose 0.5-2 µM
[5] = molecular target: T1, Estrogen receptor (Homo sapiens) (UniProt P03372); test: Induction of ERalpha degradation in human MCF7 cells assessed as decrease in ERalpha protein expression at 0.5 to 3 uM for 24 hrs by Western blot analysis; type: cell-based; settings: dose 0.5-3 µM
T1 sequence (whole entry): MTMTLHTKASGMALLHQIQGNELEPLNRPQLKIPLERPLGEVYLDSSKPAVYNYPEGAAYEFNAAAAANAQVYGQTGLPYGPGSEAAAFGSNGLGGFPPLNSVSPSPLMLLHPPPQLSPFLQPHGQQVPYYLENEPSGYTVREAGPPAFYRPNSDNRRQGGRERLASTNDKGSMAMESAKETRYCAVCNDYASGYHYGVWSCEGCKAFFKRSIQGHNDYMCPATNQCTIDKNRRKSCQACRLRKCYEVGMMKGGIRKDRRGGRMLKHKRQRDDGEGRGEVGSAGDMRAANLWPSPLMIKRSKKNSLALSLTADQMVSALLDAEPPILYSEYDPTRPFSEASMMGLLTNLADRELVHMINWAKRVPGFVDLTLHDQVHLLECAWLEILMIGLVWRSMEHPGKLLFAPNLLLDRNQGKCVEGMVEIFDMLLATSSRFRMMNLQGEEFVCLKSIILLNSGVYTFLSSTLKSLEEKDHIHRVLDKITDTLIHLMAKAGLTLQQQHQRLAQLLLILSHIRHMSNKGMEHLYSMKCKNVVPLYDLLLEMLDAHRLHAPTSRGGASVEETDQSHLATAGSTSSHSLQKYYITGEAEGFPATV

MCF7 [6] = test: Cell cycle arrest in human MCF7 cells assessed as reduction in CDK4 expression at 0.5 to 3 uM and measured after 24 hrs by Western blot analysis; type: functional, cell-based; settings: dose 0.5-3 µM
MCF7 [7] = test: Cell cycle arrest in human MCF7 cells assessed as accumulation at G1 phase at 0.5 uM measured after 24 hrs by propidium iodide staining based flow cytometry (reference value: 73.45 %); type: functional
MCF7 [8] = test: Cell cycle arrest in human MCF7 cells assessed as reduction in cyclin D1 expression at 0.5 to 3 uM and measured after 24 hrs by Western blot analysis; type: functional, cell-based; settings: dose 0.5-3 µM
MCF7 [9] = test: Induction of apoptosis in human MCF7 cells assessed as decrease in Bcl2 protein level at 0.5 to 3 uM and measured after 24 hrs Western blot analysis relative to control; type: functional, cell-based; settings: dose 0.5-3 µM
MCF7 [10] = test: Induction of apoptosis in human MCF7 cells assessed as early apoptotic cells at 0.5 uM incubated for 24 hrs by annexin-V and PI staining based flow cytometry analysis relative to control; type: functional
[11] = molecular target: T1, Estrogen receptor (Homo sapiens); test: Induction of ERalpha degradation in human MCF7 cells assessed as ERalpha level at 3 uM measured after 24 hrs in presence of proteasome inhibitor MG132 by Western blot analysis; type: cell-based
MCF7 [12] = test: Induction of ROS generation in human MCF7 cells assessed as increase in intracellular ROS level measured after 24 hrs preincubated with NAC by DCFH-DA staining based flow cytometry method; type: functional, cell-based
MCF7 [13] = test: Induction of apoptosis in human MCF7 cells assessed as early apoptotic cells at 2 uM incubated for 24 hrs by annexin-V and PI staining based flow cytometry analysis relative to control; type: functional
MCF7 [14] = test: Cell cycle arrest in human MCF7 cells assessed as accumulation at G1 phase at 1 uM measured after 24 hrs by propidium iodide staining based flow cytometry (reference value: 73.45 %); type: functional
MCF7 [15] = test: Induction of apoptosis in human MCF7 cells assessed as increase in Bax protein level at 0.5 to 3 uM and measured after 24 hrs Western blot analysis relative to control; type: functional, cell-based; settings: dose 0.5-3 µM
MDA-MB-231 = test: Antiproliferative activity against human MDA-MB-231 cells assessed as reduction in cell viability after 48 hrs by MTT assay; settings: MDA-MB-231, 48 h
MCF7 [16] = test: Induction of apoptosis in human MCF7 cells assessed as increase in cleaved caspase 3 level at 0.5 to 3 uM and measured after 24 hrs Western blot analysis relative to control; type: functional, cell-based; settings: dose 0.5-3 µM
[17] = Metabolic stability in rat liver microsomes assessed as assessed as intrinsic clearance incubated for 60 mins in presence of NADPH by UPLC-MS analysis; type: ADME, Microsome; settings: read-out: CLH
MCF7 [18] = test: Cell cycle arrest in human MCF7 cells assessed as accumulation at G1 phase at 2 uM measured after 24 hrs by propidium iodide staining based flow cytometry (reference value: 73.45 %); type: functional
[19] = molecular target: T1, Estrogen receptor (Homo sapiens); test: Induction of ERalpha degradation in human MCF7 cells assessed as decrease in ERalpha protein expression at 3 uM measured upto 24 hrs by Western blot analysis; type: cell-based; settings: time hrs <=24, TDE = time-dependent effect
MCF7 [20] = test: Induction of apoptosis in human MCF7 cells assessed as early apoptotic cells at 1 uM incubated for 24 hrs by annexin-V and PI staining based flow cytometry analysis relative to control; type: functional
MCF7 [21] = test: Inhibition of colony formation in human MCF7 cells at 0.5 uM measured after 9 days by crystal violet staining based assay relative to control; type: functional, cell-based; settings: time 9.0 day
[22] = molecular target: T1, Estrogen receptor (Homo sapiens); test: Induction of ERalpha degradation in human MCF7 cells assessed as decrease in ERalpha protein expression at 1 uM incubated for 24 hrs by Western blot analysis; type: cell-based
MCF7 [23] = test: Antiproliferative activity against human MCF7/ADR cells assessed as reduction in cell viability after 48 hrs by MTT assay; type: functional, cell-based; settings: MCF7, 48 h
MCF7 [24] = test: Antiproliferative activity against human MCF7 cells assessed as reduction in cell viability after 48 hrs by MTT assay; type: functional, cell-based; settings: MCF7, 48 h
MCF7 [25] = test: Induction of mitochondrial membrane potential loss in human MCF7 cells at 2 uM measured after 24 hrs by JC-1 staining based flow cytometry; type: functional, cell-based
[26] = Antiproliferative activity against human MCF-10A cells assessed as reduction in cell viability after 48 hrs by MTT assay; type: toxicity, cell-based
MCF7 [27] = test: Induction of apoptosis in human MCF7 cells assessed as increase in cleaved caspase 9 level at 0.5 to 3 uM and measured after 24 hrs Western blot analysis relative to control; type: functional, cell-based; settings: dose 0.5-3 µM
[28] = molecular target: T1, Estrogen receptor (Homo sapiens); test: Induction of ERalpha degradation in human MCF7 cells assessed as ERalpha level at 3 uM measured after 24 hrs in presence of HyT by Western blot analysis; type: cell-based
MCF7 [29] = test: Inhibition of colony formation in human MCF7 cells at 2 uM measured after 9 days by crystal violet staining based assay relative to control; type: functional, cell-based; settings: time 9.0 day
MCF7 [30] = test: Induction of mitochondrial membrane potential loss in human MCF7 cells measured after 24 hrs by JC-1 staining based flow cytometry; type: functional, cell-based

CC1=CC(=O)[C@H]2/C(C=O)=C\C[C@H]3[C@@H]([C@@H](C)/C=C\C=C/C(=O)OCCOCCOCCOC(=O)CC45CC6CC(CC(C6)C4)C5)CC[C@]3(C)C[C@H]12
Activity (MCF7 [1]): Active | inhibition (MCF7 [2]): Active | Activity (MCF7 [3]): Active | Activity (MCF7 [4]): Dose-Dependent Effect | Activity [5]: Dose-Dependent Effect | Activity (MCF7 [6]): Dose-Dependent Effect | Activity (MCF7 [7]): 74.77% | Activity (MCF7 [8]): Dose-Dependent Effect | Activity (MCF7 [9]): Active | Activity (MCF7 [10]): 6.9% | Activity [11]: inactive | Activity (MCF7 [12]): inactive | Activity (MCF7 [13]): 32.3% | Activity (MCF7 [14]): 78.07% | Activity (MCF7 [15]): Active | IC50 (MDA-MB-231): 310 nM | Activity (MCF7 [16]): Dose-Dependent Effect | microsomal CLint [17]: 17.8 µL/min/mg | Activity (MCF7 [18]): 87.85% | Activity [19]: Tde | Activity (MCF7 [20]): 14.1% | inhibition (MCF7 [21]): Active | Activity [22]: Active | IC50 (MCF7 [23]): 480 nM | IC50 (MCF7 [24]): 410 nM | Activity (MCF7 [25]): Active | IC50 at 48 h [26]: 2190 nM | Activity (MCF7 [27]): Dose-Dependent Effect | Activity [28]: Active | inhibition (MCF7 [29]): Active | Activity (MCF7 [30]): Active

From ChEMBL document CHEMBL5042519, “Design and synthesis of marine sesterterpene analogues as novel estrogen receptor α degraders for breast cancer treatment” (Eur J Med Chem, 2022)
